Format in all cases: in vivo
Data set [1] has as its system Cyperus difformis (smallflower umbrella plant). The experiment in a line: Test Example-1: herbicidal effect by a treatment before weeds are generated under submerged conditions. As to conditions: 500 g a.i/ha, pre-emergence treatment, about 15 days after treatment, score 0-5. Put shortly:
(§1)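 This is a pre-emergence test under flooding: compound formulations were applied into the water at a set dosage on the day weeds were sown in puddled paddy soil. Weed control was rated on a six-step 0–5 scale roughly 15 days later.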

Data set [2] relates to Echinochloa oryzicola (barnyard grass). The data set is described as above. The following applies: 500 g a.i/ha, pre-emergence treatment, about 15 days after treatment, score 0-5. In outline: as §1
Data set [3] relates to Eleocharis acicularis (needle spikerush). Described as above. The following applies: 500 g a.i/ha, pre-emergence treatment, about 15 days after treatment, score 0-5. Put shortly:
as §1

Data set [4] concerns Monochoria vaginalis (monochoria). The description is as above. The following applies: 500 g a.i/ha, pre-emergence treatment, about 15 days after treatment, score 0-5. In outline:
as §1

Data set [5] concerns Scirpus juncoides (bulrush). The description is as above. As to conditions: 500 g a.i/ha, pre-emergence treatment, about 15 days after treatment, score 0-5. Put shortly:
as §1

Data set [6] deals with other annual broad leaf weeds (Lindernia procumbens, Rotala indica, Elatine triandra). The data set is described as above. The following applies: 500 g a.i/ha, pre-emergence treatment, about 15 days after treatment, score 0-5. In outline:
as §1

Data set [7] relates to Abutilon theophrasti (velvetleaf). The experiment in a line: Test Example-4: herbicidal effect by a foliage treatment after weeds are generated under upland field conditions. The following applies: 500 g a.i/ha, foliage treatment after emergence, about 14 days after treatment, score 0-5. Put shortly:
(§2)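 Post-emergence foliar test: wettable powder or emulsifiable concentrate was diluted and sprayed at 4000 L water/ha at a set dosage onto plants raised 14 days from seed in upland soil. Herbicidal effect and corn injury were rated 0–5 roughly 14 days later.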

The subject of data set [8] is Amaranthus viridis (green amaranthus). The description is as above. As to conditions: 500 g a.i/ha, foliage treatment after emergence, about 14 days after treatment, score 0-5. Put shortly:
as §2

Data set [9] deals with Chenopodium album (common lambsquarters). Described as above. As to conditions: 500 g a.i/ha, foliage treatment after emergence, about 14 days after treatment, score 0-5. Put shortly:
as §2

In another data set the test system is corn. The data set is described as follows: Test Example-4: phytotoxicity by a foliage treatment after weeds are generated under upland field conditions. As to conditions: 500 g a.i/ha, foliage treatment after emergence, about 14 days after treatment, score 0-5. In outline: as §2

As to `O=c1c(-c2cc(OCc3ccc(F)cc3)c(Cl)cc2F)c(Cl)n2n1CCCC2` [Example 1-192], the “Herbicidal effect Cyperus difformis” value in data set [1] was 5 (Herbicidal effect/phytotoxicity was 90% or greater). Moreover, the “Herbicidal effect Echinochloa oryzicola” value in data set [2] was 5 (Herbicidal effect/phytotoxicity was 90% or greater). Also, the “Herbicidal effect Eleocharis acicularis” value in [3] is listed as 5 (Herbicidal effect/phytotoxicity was 90% or greater). The “Herbicidal effect Monochoria vaginalis” value in data set [4] is given as 5 (Herbicidal effect/phytotoxicity was 90% or greater). Besides, the “Herbicidal effect Scirpus juncoides” value in data set [5] is given as 5 (Herbicidal effect/phytotoxicity was 90% or greater). Also, the “Herbicidal effect Broadleaf weed” value in [6] is recorded as 5 (Herbicidal effect/phytotoxicity was 90% or greater). Moreover, in data set [7], the “Herbicidal effect Abutilon theophrast” value is recorded as 5 (Herbicidal effect/phytotoxicity was 90% or greater). For the same compound, the “Herbicidal effect Amaranthus viridis” value in [8] is recorded as 5 (Herbicidal effect/phytotoxicity was 90% or greater). Besides, the “Herbicidal effect Chenopodium album” value in data set [9] is 5 (Herbicidal effect/phytotoxicity was 90% or greater). Further, the “Phytotoxicity Corn” value with corn is listed as 1 (Herbicidal effect/phytotoxicity was 10% to 30%).
Regarding `O=c1c(-c2cc(OC3CCCC3)c(Cl)cc2Cl)c(Cl)n2n1CCCC2` [Example 1-307], the “Herbicidal effect Cyperus difformis” value in data set [1] is 5 (Herbicidal effect/phytotoxicity was 90% or greater). In data set [2], the “Herbicidal effect Echinochloa oryzicola” value is 5 (Herbicidal effect/phytotoxicity was 90% or greater). Besides, in data set [3], the “Herbicidal effect Eleocharis acicularis” value was 5 (Herbicidal effect/phytotoxicity was 90% or greater). In addition, in data set [4], the “Herbicidal effect Monochoria vaginalis” value was 5 (Herbicidal effect/phytotoxicity was 90% or greater). The “Herbicidal effect Scirpus juncoides” value in data set [5] was 5 (Herbicidal effect/phytotoxicity was 90% or greater). The “Herbicidal effect Broadleaf weed” value in data set [6] is 5 (Herbicidal effect/phytotoxicity was 90% or greater). In addition, the “Herbicidal effect Abutilon theophrast” value in data set [7] is listed as 5 (Herbicidal effect/phytotoxicity was 90% or greater). Moreover, in data set [8], the “Herbicidal effect Amaranthus viridis” value is reported as 5 (Herbicidal effect/phytotoxicity was 90% or greater). Moreover, the “Herbicidal effect Chenopodium album” value in data set [9] is recorded as 5 (Herbicidal effect/phytotoxicity was 90% or greater). In the data set on corn, the “Phytotoxicity Corn” value is given as 0 (Herbicidal effect/phytotoxicity was 0% to 10%).
Take `CC#CCOc1cc(-c2c(Cl)n3n(c2=O)CCCC3)c(F)cc1F` [Example 1-115]: in data set [1], the “Herbicidal effect Cyperus difformis” value is listed as 5 (Herbicidal effect/phytotoxicity was 90% or greater). Further, the “Herbicidal effect Echinochloa oryzicola” value in data set [2] was 5 (Herbicidal effect/phytotoxicity was 90% or greater). The “Herbicidal effect Eleocharis acicularis” value in data set [3] is on record as 5 (Herbicidal effect/phytotoxicity was 90% or greater). The “Herbicidal effect Monochoria vaginalis” value in data set [4] is reported as 5 (Herbicidal effect/phytotoxicity was 90% or greater). For the same compound, the “Herbicidal effect Scirpus juncoides” value in data set [5] is listed as 5 (Herbicidal effect/phytotoxicity was 90% or greater). Besides, in data set [6], the “Herbicidal effect Broadleaf weed” value is 5 (Herbicidal effect/phytotoxicity was 90% or greater). Further, in [7], the “Herbicidal effect Abutilon theophrast” value is recorded as 5 (Herbicidal effect/phytotoxicity was 90% or greater). For the same compound, the “Herbicidal effect Amaranthus viridis” value in [8] is listed as 5 (Herbicidal effect/phytotoxicity was 90% or greater). Further, the “Herbicidal effect Chenopodium album” value in [9] is reported as 5 (Herbicidal effect/phytotoxicity was 90% or greater). Moreover, the “Phytotoxicity Corn” value with corn is on record as 3 (Herbicidal effect/phytotoxicity was 50% to 70%).
For the compound `Cc1cc(-c2c(Cl)n3n(c2=O)CCCC3)c(F)cc1Cl` [Example 1-130], the “Herbicidal effect Cyperus difformis” value in data set [1] was 5 (Herbicidal effect/phytotoxicity was 90% or greater). The “Herbicidal effect Echinochloa oryzicola” value in data set [2] was 5 (Herbicidal effect/phytotoxicity was 90% or greater). For the same compound, in data set [3], the “Herbicidal effect Eleocharis acicularis” value is 5 (Herbicidal effect/phytotoxicity was 90% or greater). Also, the “Herbicidal effect Monochoria vaginalis” value in data set [4] is given as 5 (Herbicidal effect/phytotoxicity was 90% or greater). The “Herbicidal effect Scirpus juncoides” value in data set [5] is listed as 5 (Herbicidal effect/phytotoxicity was 90% or greater). For the same compound, the “Herbicidal effect Broadleaf weed” value in data set [6] is 5 (Herbicidal effect/phytotoxicity was 90% or greater). In addition, the “Herbicidal effect Abutilon theophrast” value in data set [7] was 5 (Herbicidal effect/phytotoxicity was 90% or greater). Besides, the “Herbicidal effect Amaranthus viridis” value in data set [8] is recorded as 5 (Herbicidal effect/phytotoxicity was 90% or greater). Besides, the “Herbicidal effect Chenopodium album” value in [9] is reported as 5 (Herbicidal effect/phytotoxicity was 90% or greater). For the same compound, the “Phytotoxicity Corn” value with corn is given as 1 (Herbicidal effect/phytotoxicity was 10% to 30%).
Turning to `C#CCOc1cc(-c2c(Cl)n3n(c2=O)CCCCC3)ccc1Cl` [Example 1-63], the “Herbicidal effect Cyperus difformis” value in data set [1] was 5 (Herbicidal effect/phytotoxicity was 90% or greater). Also, in data set [2], the “Herbicidal effect Echinochloa oryzicola” value is reported as 5 (Herbicidal effect/phytotoxicity was 90% or greater). Moreover, the “Herbicidal effect Eleocharis acicularis” value in data set [3] is recorded as 5 (Herbicidal effect/phytotoxicity was 90% or greater). In addition, the “Herbicidal effect Monochoria vaginalis” value in [4] is listed as 5 (Herbicidal effect/phytotoxicity was 90% or greater). The “Herbicidal effect Scirpus juncoides” value in [5] is 5 (Herbicidal effect/phytotoxicity was 90% or greater). Moreover, the “Herbicidal effect Broadleaf weed” value in [6] is reported as 5 (Herbicidal effect/phytotoxicity was 90% or greater). Further, in data set [7], the “Herbicidal effect Abutilon theophrast” value is reported as 5 (Herbicidal effect/phytotoxicity was 90% or greater). In [8], the “Herbicidal effect Amaranthus viridis” value is 5 (Herbicidal effect/phytotoxicity was 90% or greater). Moreover, the “Herbicidal effect Chenopodium album” value in [9] was 5 (Herbicidal effect/phytotoxicity was 90% or greater). Further, the “Phytotoxicity Corn” value in the data set with corn is 1 (Herbicidal effect/phytotoxicity was 10% to 30%).
Take `CC=CCOc1cc(-c2c(Cl)n3n(c2=O)CCCC3)c(F)cc1Cl` [Example 1-209]: the “Herbicidal effect Cyperus difformis” value in data set [1] is 5 (Herbicidal effect/phytotoxicity was 90% or greater). For the same compound, the “Herbicidal effect Echinochloa oryzicola” value in data set [2] was 5 (Herbicidal effect/phytotoxicity was 90% or greater). In data set [3], the “Herbicidal effect Eleocharis acicularis” value is listed as 5 (Herbicidal effect/phytotoxicity was 90% or greater). For the same compound, the “Herbicidal effect Monochoria vaginalis” value in data set [4] is 5 (Herbicidal effect/phytotoxicity was 90% or greater). The “Herbicidal effect Scirpus juncoides” value in data set [5] is recorded as 5 (Herbicidal effect/phytotoxicity was 90% or greater). Besides, the “Herbicidal effect Broadleaf weed” value in [6] is listed as 5 (Herbicidal effect/phytotoxicity was 90% or greater). In data set [7], the “Herbicidal effect Abutilon theophrast” value is reported as 5 (Herbicidal effect/phytotoxicity was 90% or greater). Moreover, in [8], the “Herbicidal effect Amaranthus viridis” value is 5 (Herbicidal effect/phytotoxicity was 90% or greater). The “Herbicidal effect Chenopodium album” value in [9] is reported as 5 (Herbicidal effect/phytotoxicity was 90% or greater). The “Phytotoxicity Corn” value in the data set with corn is listed as 2 (Herbicidal effect/phytotoxicity was 30% to 50%).
As for `CCOc1cc(-c2c(Cl)n3n(c2=O)CCCC3)c(F)cc1Cl` [Example 1-146], the “Herbicidal effect Cyperus difformis” value in [1] is 5 (Herbicidal effect/phytotoxicity was 90% or greater). For the same compound, in [2], the “Herbicidal effect Echinochloa oryzicola” value was 5 (Herbicidal effect/phytotoxicity was 90% or greater). Also, the “Herbicidal effect Eleocharis acicularis” value in data set [3] is listed as 5 (Herbicidal effect/phytotoxicity was 90% or greater). The “Herbicidal effect Monochoria vaginalis” value in data set [4] was 5 (Herbicidal effect/phytotoxicity was 90% or greater). Moreover, the “Herbicidal effect Scirpus juncoides” value in [5] is 5 (Herbicidal effect/phytotoxicity was 90% or greater). Also, the “Herbicidal effect Broadleaf weed” value in data set [6] was 5 (Herbicidal effect/phytotoxicity was 90% or greater). Further, in data set [7], the “Herbicidal effect Abutilon theophrast” value is listed as 5 (Herbicidal effect/phytotoxicity was 90% or greater). For the same compound, the “Herbicidal effect Amaranthus viridis” value in data set [8] was 5 (Herbicidal effect/phytotoxicity was 90% or greater). Further, in [9], the “Herbicidal effect Chenopodium album” value is 5 (Herbicidal effect/phytotoxicity was 90% or greater). Further, the “Phytotoxicity Corn” value in the data set with corn was 0 (Herbicidal effect/phytotoxicity was 0% to 10%).
As to `O=c1c(-c2cc(OCC3CCCCC3)c(Cl)cc2F)c(Cl)n2n1CCCC2` [Example 1-188], the “Herbicidal effect Cyperus difformis” value in data set [1] is recorded as 5 (Herbicidal effect/phytotoxicity was 90% or greater). The “Herbicidal effect Echinochloa oryzicola” value in [2] is 5 (Herbicidal effect/phytotoxicity was 90% or greater). In addition, the “Herbicidal effect Eleocharis acicularis” value in data set [3] is 5 (Herbicidal effect/phytotoxicity was 90% or greater). In addition, in data set [4], the “Herbicidal effect Monochoria vaginalis” value is 5 (Herbicidal effect/phytotoxicity was 90% or greater). Moreover, the “Herbicidal effect Scirpus juncoides” value in data set [5] is on record as 5 (Herbicidal effect/phytotoxicity was 90% or greater). In addition, the “Herbicidal effect Broadleaf weed” value in data set [6] is 5 (Herbicidal effect/phytotoxicity was 90% or greater). The “Herbicidal effect Abutilon theophrast” value in data set [7] is 5 (Herbicidal effect/phytotoxicity was 90% or greater). Moreover, the “Herbicidal effect Amaranthus viridis” value in data set [8] is on record as 5 (Herbicidal effect/phytotoxicity was 90% or greater). Also, the “Herbicidal effect Chenopodium album” value in data set [9] is given as 5 (Herbicidal effect/phytotoxicity was 90% or greater). In addition, the “Phytotoxicity Corn” value in the data set with corn is on record as 0 (Herbicidal effect/phytotoxicity was 0% to 10%).

Source of the values: patent publication US9580444B2, “Polycyclic pyrazolinone derivative and herbicide comprising same as effective component thereof” (priority 2013, dated 2017).
